Test results from US20140162285A1, “Methods of Modulating Vesicular Trafficking” (The General Hospital Corporation, priority 2009, published 2014).
Peptide text beside a SMILES is read from it. * marks the point of attachment. Biotin = O=C1N[C@H]2[C@H](CS[C@H]2CCCCC(=O)*)N1

T1: ARNO's GEF activity with Arf6 (Homo sapiens, UniProt Q99418)
T1 sequence (Q99418 1-400): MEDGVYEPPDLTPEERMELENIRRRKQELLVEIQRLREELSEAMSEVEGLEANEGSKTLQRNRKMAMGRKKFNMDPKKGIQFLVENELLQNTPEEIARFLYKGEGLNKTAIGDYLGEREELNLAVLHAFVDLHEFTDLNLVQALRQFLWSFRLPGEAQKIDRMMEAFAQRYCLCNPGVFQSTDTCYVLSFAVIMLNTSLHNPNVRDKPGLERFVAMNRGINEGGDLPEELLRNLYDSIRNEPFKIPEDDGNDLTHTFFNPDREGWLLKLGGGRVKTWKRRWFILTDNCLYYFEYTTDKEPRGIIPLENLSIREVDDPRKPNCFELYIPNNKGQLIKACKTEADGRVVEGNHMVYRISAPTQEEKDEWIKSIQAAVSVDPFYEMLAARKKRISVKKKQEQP


What was measured:
PB-domain of ARNO = target: T2, PB-domain of ARNO (Homo sapiens, UniProt Q99418); assay: a2N-derived peptide pull-down with GST-PB domain; format: binding
T2 construct: v) 379-400aa, polybasic (PB) domain; made in house; host or cells: E. coli BL21(DE3)
Procedure: FIGS. 5A-C are a set of three images of Western blots showing the identification of interaction motif of a2N that is involved in specific binding with the Sec7 domain of ARNO. 5A, The catalytic Sec7 domain of ARNO interacts with two a2N-derived peptides, a2N-01 and a2N-03, in pull-down experiments. The peptide pull-down assay was performed with six a2N-derived interaction peptides immobilized on streptavidin-beads and incubated with purified recombinant GST-only or GST-Sec7 domain. Interacting complexes were eluted and analyzed by Western blotting using monoclonal anti-GST antibodies as described below. The loading controls for GST-only (lane 1) or GST-Sec7 (lane 2) are shown. […] The peptide pull-down assay was performed with peptides a2N-01 and a2N-03 immobilized on streptavidin-beads and incubated with purified recombinant GST-PH domain (5B) or GST-PB domain (5C). Interacting complexes were eluted and analyzed by Western blotting using monoclonal anti-GST antibodies. […]
These a2N-derived peptides were immobilized by an N-terminal biotin-tag, which ensured the same efficiency and equivalent binding to streptavidin-agarose beads. […] After washing beads four times in ice-cold binding buffer, the interacting complexes were eluted by boiling in SDS-PAGE sample buffer for 10 min at 95° C., resolved by SDS-PAGE and analyzed by Western blotting using monoclonal anti-GST antibody. […]

[1] = target: T1, ARNO's GEF activity with Arf6; assay: radiolabel GDP/GTP-exchange (GEF) activity assay of ARNO with Arf6; format: biochemical; conditions: recombinant protein
Procedure: To test the effect of V-ATPase-derived peptides on enzymatic activity of small GTPases, the GDP/GTP exchange activity assay of ARNO with Arf6 was established in the presence of GTPγS and phospholipids vesicles containing various amounts of phosphatidylinositol PIP2 (FIG. 8).
Phospholipid vesicles were prepared by the extrusion method (Macia and Paris Biochemistry, 39: 5893-5901 (2000)). The lipids were dissolved in chloroform. A film of phospholipids was formed by evaporating chloroform and was resuspended in 50 mM Hepes, pH 7.5, and 1 mM dithiothreitol. The suspension was freeze-thawed 3 times and was passed through a 0.1 μm pore size polycarbonate filter.
GDP/GTP-exchange activity of ARNO was measured using time-course radiolabel based assay as previously described (Santy et al., Curr Biol. 9:1173-1176 (1999)). […] After washing filters 3 times with 2 ml of stop buffer, radioactivity was quantified using Perkin-Elmer “Tri-Carb 2900TR” liquid-scintillation counter.
In peptide-inhibition experiments, 500 nM of recombinant ARNO were incubated in the presence of different amounts (0-2000 nM) of FITC-a2N-01-TAT peptide or FITC-TAT peptide as a control. […] The enzymatic activities were followed for 30 min at 37° C. and radioactivity of aliquots were analyzed as described above.

Molecule | interaction with PB-domain of ARNO (PB-domain of ARNO) | modulation of GDP/GTP-exchange activity of ARNO [1]
CSCC[C@H](NC(=O)CCCC[C@@H]1SC[C@@H]2NC(=O)N[C@@H]21)C(=O)NCC(=O)N[C@@H](CO)C(=O)N[C@@H](CC(C)C)C(=O)N[C@@H](Cc1ccccc1)C(=O)N[C@@H](CCCNC(=N)N)C(=O)N[C@@H](CO)C(=O)N[C@@H](CCC(=O)O)C(=O)N[C@@H](CO)C(=O)N[C@@H](CCSC)C(=O)N[C@@H](CS)C(=O)N[C@@H](CC(C)C)C(=O)N[C@@H](C)C(=O)N[C@@H](CCC(N)=O)C(=O)N[C@@H](CC(C)C)C(=O)N[C@@H](Cc1ccccc1)C(=O)N[C@@H](CC(C)C)C(=O)N[C@@H](CS)C(=O)O [a2N-01, Bio-MGSLFRSE SMCLAQLFL-Cys] (Biotin-MGSLFRSESMCLAQLFLC-OH; N-terminus and C-terminus assumed) | does not interact | 
a2N: recombinant N-terminal cytosolic tail, amino acid residues 1-402 of mouse V-ATPase a2-subunit (protein, left off: small tags and cut ends, recombinant N-terminal cytosolic tail, amino acid residues 1-402 of mouse V-ATPase a2-subunit) MGSLFRSESMCLAQLFLQSGTAYECLSALGEKGLVQFRDLNQNVSSFQRKFVGEVKRCEELERILVYLVQEITRADIPLPEGEASPPAPPLKHVLEMQEQLQKLEVELREVTKNKEKLRKNLLELVEYTHMLRVTKTFLKRNVEFEPTYEEFPALENDSLLDYSCMQRLGAKLGFVSGLIQQGRVEAFERMLWRACKGYTIVTYAELDECLEDPETGEVIKWYVFLISFWGEQIGHKVKKICDCYHCHIYPYPNTAEERREIQEGLNTRIQDLYTVLHKTEDYLRQVLCKAAESVCSRVVQVRKMKAIYHMLNMCSFDVTNKCLIAEVWCPEVDLPGLRRALEEGSRESGATIPSFMNTIPTKETPPTLIRTNKFTEGFQNIVDAYGVGSYREVNPALFTII |  | successfully used to modulate
